This is an account of results in patent publication EP4810020A1, “NANOPARTICLE ADIPOSOME ENCAPSULATING HYDROPHOBIC SMALL-MOLECULE DRUG, PREPARATION METHOD THEREFOR, AND USE THEREOF” (WeCareLife Biotech Co., Ltd., priority 2023, dated 2025).

Data set [1] is described as follows: dissolution / appearance in PBS. How it is done: Paclitaxel and the prepared paclitaxel adiposomes were dissolved in PBS, respectively.
The conditions of data set [2]: cited from earlier work.

Read-outs that look alike come from different tables or passages of the source. Square brackets hold non-standard residues; d marks the D form. Peptide text beside a SMILES is read from it. * marks the point of attachment. Dolaproine = CO[C@@H]([C@@H]1CCCN1)[C@@H](C)C(=O)O; Dil = CC[C@H](C)[C@H](NC)[C@@H](CC(=O)O)OC; X1 = C[C@@H](N*)[C@@H](O)c1ccccc1; NMeV = CN[C@H](C(=O)O)C(C)C

In the case of `CC[C@H](C)[C@@H]([C@@H](CC(=O)N1CCC[C@H]1[C@H](OC)[C@@H](C)C(=O)N[C@H](C)[C@@H](O)c1ccccc1)OC)N(C)C(=O)[C@@H](NC(=O)[C@@H](NC)C(C)C)C(C)C` [Monomethyl auristatin E] (H-[NMeV]V[Dil][Dolaproine]-X1), the “solubility / state in PBS” value in data set [1] (in PBS) is recorded as “very low solubility in PBS”. In addition, the logP in data set [2] is given as 3.4. Regarding `CC[C@@]1(O)C(=O)OCc2c1cc1n(c2=O)Cc2cc3ccccc3nc2-1` [Camptothecin], the “solubility / state in PBS” value in data set [1] (in PBS) was “very low solubility in PBS”. The logP in data set [2] is recorded as 1.9. Take `C=CCc1ccc(O)c(-c2ccc(O)c(CC=C)c2)c1` [Honokiol]: the “solubility / state in PBS” value in data set [1] was “very low solubility in PBS”.

For the compound `CC(=O)O[C@H]1C(=O)[C@@]2(C)[C@H]([C@H](OC(=O)c3ccccc3)[C@]3(O)C[C@H](OC(=O)[C@H](O)[C@@H](NC(=O)c4ccccc4)c4ccccc4)C(C)=C1C3(C)C)[C@]1(OC(C)=O)CO[C@@H]1C[C@@H]2O` [Paclitaxel], the “solubility / state in PBS” value in data set [1] (in PBS) is reported as “very low solubility in PBS”.
